Experimental data reported in ChEMBL document CHEMBL1201862, “PubChem BioAssay data set” (2004).
The source made the active and inactive calls.

Key:
[1] = target: T1, Short transient receptor potential channel 4 (Mus musculus, UniProt Q9QUQ5); assay: TRPC4 positive allosteric modulators, dose response, cell-based, HEK293 TRPC4/mu-opioid, Fluo-4 calcium, EC20 DAMGO (AID 434941); format: functional
T1 sequence (Q9QUQ5 whole entry): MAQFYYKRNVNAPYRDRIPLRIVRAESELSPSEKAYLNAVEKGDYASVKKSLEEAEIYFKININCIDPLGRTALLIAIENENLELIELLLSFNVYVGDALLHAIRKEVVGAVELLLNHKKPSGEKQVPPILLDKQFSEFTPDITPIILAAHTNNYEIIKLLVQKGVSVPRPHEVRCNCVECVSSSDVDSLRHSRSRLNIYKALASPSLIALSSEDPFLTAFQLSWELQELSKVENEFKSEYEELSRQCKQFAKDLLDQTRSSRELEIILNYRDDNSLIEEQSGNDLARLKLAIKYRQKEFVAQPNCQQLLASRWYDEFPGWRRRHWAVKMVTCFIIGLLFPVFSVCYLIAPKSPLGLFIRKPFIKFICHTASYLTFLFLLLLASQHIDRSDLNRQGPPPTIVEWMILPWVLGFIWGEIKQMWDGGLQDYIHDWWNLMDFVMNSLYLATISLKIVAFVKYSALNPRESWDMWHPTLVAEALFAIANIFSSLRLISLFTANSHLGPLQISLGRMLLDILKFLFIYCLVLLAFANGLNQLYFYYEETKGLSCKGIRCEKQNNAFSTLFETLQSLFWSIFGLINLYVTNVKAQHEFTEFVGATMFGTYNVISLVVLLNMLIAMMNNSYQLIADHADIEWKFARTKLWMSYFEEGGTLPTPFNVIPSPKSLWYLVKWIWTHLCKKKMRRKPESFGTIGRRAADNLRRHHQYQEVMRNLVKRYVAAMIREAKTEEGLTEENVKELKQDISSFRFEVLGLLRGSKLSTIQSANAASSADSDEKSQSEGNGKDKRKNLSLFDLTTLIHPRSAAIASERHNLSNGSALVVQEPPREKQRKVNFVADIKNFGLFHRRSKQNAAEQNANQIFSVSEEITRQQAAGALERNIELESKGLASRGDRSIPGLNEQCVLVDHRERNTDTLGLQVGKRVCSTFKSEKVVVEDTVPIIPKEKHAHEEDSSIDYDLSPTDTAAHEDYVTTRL

[2] = target: T2, SUMO-activating enzyme (Homo sapiens, UniProt Q9UBT2); assay: SUMOylation inhibitor hit validation, confirmation, SUMOylation inhibitor project, biochemical, AlphaScreen (AID 2018); format: functional
T2 sequence (Q9UBE0 whole entry): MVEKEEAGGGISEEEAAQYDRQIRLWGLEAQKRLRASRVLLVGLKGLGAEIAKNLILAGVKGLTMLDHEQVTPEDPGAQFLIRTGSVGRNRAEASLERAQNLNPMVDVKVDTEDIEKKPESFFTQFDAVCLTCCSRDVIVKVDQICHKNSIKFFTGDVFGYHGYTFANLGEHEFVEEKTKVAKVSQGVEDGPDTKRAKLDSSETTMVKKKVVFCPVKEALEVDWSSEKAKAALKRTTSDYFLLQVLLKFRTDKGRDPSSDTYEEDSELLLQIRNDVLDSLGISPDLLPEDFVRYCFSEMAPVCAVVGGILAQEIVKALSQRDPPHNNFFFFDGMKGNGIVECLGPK
T2 sequence (Q9UBT2 whole entry): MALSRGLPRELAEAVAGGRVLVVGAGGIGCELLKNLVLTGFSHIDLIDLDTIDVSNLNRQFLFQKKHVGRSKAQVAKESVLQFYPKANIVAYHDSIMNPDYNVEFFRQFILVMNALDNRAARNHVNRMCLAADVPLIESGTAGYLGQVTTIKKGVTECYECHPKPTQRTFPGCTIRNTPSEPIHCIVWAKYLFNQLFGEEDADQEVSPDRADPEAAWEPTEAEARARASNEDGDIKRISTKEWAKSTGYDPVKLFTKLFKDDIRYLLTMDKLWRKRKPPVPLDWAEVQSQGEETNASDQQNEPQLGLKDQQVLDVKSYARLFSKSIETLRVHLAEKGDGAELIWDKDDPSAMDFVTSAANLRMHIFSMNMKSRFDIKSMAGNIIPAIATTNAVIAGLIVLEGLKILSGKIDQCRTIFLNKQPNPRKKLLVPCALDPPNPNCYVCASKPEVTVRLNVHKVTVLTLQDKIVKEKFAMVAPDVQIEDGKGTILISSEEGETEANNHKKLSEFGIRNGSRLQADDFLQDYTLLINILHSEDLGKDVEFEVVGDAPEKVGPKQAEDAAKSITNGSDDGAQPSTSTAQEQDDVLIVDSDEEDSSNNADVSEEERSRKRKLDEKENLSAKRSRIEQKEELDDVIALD

[3] = target: T2, SUMO-activating enzyme; assay: inhibitors of in vitro SUMOylation cascade, primary screen, biochemical, HTRF, uHTS (AID 2006); format: protein-complex assay
[4] = system: Streptococcus; assay: Group A Streptococcus viability loss, dose response, counter-screen for streptokinase expression inhibitor project, luminescence, BacTiterGlo (AID 1915); format: functional, organism-based;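 further: potency for reduction of bacterial viability or growth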
[5] = target: Beta-galactosidase (Escherichia coli, UniProt Q8VNN2); assay: beta-galactosidase enzyme inhibitors and activators, dose response, artefact control for CCR6 antagonist project, biochemical, E. coli enzyme, set 3 (AID 504712); format: functional
Sequence of Beta-galactosidase (Q8VNN2 whole entry): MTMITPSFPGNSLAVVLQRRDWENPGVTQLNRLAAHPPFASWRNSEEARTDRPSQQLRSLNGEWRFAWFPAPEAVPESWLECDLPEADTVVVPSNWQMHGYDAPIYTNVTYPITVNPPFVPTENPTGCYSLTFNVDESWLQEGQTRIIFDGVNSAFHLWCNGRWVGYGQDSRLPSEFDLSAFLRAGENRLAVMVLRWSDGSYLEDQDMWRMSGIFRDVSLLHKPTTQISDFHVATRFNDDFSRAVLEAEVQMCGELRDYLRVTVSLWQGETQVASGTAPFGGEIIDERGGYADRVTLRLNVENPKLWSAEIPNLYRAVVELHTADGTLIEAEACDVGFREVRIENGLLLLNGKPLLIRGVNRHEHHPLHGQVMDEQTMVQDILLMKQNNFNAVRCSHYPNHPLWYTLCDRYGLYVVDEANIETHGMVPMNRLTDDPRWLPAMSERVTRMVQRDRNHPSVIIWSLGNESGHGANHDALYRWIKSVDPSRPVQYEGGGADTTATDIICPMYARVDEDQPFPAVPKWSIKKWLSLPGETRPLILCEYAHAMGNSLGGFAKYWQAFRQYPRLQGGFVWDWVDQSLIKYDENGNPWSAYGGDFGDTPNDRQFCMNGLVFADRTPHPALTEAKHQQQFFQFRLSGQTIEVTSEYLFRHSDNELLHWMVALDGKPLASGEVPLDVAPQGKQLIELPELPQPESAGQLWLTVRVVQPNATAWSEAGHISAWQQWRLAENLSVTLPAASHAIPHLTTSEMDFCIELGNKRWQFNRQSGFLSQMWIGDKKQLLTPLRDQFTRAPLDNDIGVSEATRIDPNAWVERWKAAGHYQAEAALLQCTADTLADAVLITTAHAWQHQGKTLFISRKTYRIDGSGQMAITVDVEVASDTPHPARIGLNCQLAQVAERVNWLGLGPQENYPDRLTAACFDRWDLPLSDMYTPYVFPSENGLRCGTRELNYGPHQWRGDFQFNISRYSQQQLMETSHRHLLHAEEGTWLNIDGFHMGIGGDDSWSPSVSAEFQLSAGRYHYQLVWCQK

[6] = target: Heat shock protein HSP 90-alpha (Homo sapiens, UniProt P07900); format: functional, organism-based
[7] = system: Streptococcus sp. 'group A'; assay: growth inhibition of control SK(-) GAS strain, dose response, counter-screen for streptokinase expression inhibitor project, luminescence, kanamycin, BacTiterGlo, confirmation (AID 1900); format: functional, organism-based
[8] = target: T3, Hexokinase HKDC1 (Homo sapiens, UniProt Q2TB90); assay: HKDC1 hexokinase inhibitors, dose response, biochemical, W721R variant (AID 504729); format: functional
T3 sequence (Q2TB90 whole entry): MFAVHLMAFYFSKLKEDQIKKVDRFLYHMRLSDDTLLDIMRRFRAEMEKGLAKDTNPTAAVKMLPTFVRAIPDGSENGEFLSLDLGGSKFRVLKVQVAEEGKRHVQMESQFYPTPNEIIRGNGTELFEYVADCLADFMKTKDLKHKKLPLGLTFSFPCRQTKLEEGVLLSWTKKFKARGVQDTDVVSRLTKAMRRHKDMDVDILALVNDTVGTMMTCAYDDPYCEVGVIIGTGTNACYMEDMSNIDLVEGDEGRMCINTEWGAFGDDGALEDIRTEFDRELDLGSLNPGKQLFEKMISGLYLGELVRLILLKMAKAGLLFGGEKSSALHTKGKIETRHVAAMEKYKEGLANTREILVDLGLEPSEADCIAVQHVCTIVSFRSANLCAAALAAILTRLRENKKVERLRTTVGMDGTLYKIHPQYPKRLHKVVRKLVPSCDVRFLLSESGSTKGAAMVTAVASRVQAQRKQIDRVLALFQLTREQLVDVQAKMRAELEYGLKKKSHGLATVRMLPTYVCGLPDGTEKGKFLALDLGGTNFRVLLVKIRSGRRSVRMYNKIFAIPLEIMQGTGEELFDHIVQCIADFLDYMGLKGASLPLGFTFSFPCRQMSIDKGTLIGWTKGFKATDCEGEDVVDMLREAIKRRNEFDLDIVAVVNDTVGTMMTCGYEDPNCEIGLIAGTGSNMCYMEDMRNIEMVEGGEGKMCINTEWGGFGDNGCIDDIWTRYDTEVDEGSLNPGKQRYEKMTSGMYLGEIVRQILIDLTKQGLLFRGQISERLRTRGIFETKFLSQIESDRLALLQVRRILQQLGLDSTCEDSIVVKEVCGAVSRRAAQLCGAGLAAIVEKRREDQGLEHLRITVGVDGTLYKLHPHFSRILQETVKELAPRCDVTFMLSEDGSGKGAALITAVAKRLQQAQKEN

[9] = C. albicans growth with fluconazole, confirmation, fluorescence, retest (AID 2467); format: functional, cell-based
[10] = NIH-3T3 fibroblast cytotoxicity, dose response, cytotoxicity control, cell-based, fluorescence, Alamar Blue, secondary assay (AID 2327); format: functional;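 further: NIH-3T3 mouse fibroblasts cultured with fluconazole at 8 µg/mL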
[11] = target: Large T antigen (Simian virus 40, UniProt P03070); format: functional, Betapolyomavirus macacae;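 further: Confirmatory-stage PubChem screen for compounds that inhibit SV40 T antigen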
Sequence of Large T antigen (P03070 whole entry): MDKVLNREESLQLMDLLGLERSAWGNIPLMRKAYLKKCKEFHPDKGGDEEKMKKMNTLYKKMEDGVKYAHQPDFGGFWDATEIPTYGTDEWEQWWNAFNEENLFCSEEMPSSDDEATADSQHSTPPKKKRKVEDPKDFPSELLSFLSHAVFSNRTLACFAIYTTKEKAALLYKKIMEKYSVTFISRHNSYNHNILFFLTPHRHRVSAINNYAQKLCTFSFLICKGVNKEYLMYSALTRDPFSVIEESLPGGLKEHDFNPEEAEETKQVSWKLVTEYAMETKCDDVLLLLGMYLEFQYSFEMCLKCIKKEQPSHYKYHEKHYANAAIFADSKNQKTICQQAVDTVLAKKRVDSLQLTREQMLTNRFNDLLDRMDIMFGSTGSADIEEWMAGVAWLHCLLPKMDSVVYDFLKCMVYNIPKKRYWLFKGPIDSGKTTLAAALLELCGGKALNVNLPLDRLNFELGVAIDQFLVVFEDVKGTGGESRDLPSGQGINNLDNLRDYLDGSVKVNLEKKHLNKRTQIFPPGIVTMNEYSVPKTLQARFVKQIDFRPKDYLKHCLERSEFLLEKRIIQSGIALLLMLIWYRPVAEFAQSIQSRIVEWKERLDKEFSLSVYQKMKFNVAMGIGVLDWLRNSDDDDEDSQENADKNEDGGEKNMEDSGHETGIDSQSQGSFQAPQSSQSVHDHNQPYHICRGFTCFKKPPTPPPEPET

[12] = target: DNA dC->dU-editing enzyme APOBEC-3G (Homo sapiens, UniProt Q9HC16); assay: Dose Response confirmation of small molecule APOBEC3G DNA Deaminase Inhibitors via a fluorescence-based single-stranded DNA deaminase assay. [Related pubchem assays (depositor defined):AID493012, AID493028]; format: functional
Sequence of DNA dC->dU-editing enzyme APOBEC-3G (Q9HC16 whole entry): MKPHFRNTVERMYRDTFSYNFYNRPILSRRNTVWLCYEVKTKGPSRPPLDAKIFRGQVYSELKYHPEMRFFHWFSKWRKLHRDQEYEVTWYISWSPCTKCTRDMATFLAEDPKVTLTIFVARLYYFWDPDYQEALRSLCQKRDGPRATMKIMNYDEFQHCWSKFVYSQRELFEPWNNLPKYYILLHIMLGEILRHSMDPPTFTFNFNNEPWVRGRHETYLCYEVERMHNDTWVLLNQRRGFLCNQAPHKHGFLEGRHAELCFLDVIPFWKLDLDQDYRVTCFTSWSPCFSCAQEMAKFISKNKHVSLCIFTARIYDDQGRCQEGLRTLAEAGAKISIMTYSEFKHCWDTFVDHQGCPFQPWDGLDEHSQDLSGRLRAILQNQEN

[13] = target: Genome polyprotein (dengue virus type 2, UniProt P29990); assay: Dengue-2 NS5 methyltransferase inhibitors, primary screen, biochemical, confirmation dose response (AID 588689); format: functional
Sequence of Genome polyprotein (P29990 2492-3391 limits assumed): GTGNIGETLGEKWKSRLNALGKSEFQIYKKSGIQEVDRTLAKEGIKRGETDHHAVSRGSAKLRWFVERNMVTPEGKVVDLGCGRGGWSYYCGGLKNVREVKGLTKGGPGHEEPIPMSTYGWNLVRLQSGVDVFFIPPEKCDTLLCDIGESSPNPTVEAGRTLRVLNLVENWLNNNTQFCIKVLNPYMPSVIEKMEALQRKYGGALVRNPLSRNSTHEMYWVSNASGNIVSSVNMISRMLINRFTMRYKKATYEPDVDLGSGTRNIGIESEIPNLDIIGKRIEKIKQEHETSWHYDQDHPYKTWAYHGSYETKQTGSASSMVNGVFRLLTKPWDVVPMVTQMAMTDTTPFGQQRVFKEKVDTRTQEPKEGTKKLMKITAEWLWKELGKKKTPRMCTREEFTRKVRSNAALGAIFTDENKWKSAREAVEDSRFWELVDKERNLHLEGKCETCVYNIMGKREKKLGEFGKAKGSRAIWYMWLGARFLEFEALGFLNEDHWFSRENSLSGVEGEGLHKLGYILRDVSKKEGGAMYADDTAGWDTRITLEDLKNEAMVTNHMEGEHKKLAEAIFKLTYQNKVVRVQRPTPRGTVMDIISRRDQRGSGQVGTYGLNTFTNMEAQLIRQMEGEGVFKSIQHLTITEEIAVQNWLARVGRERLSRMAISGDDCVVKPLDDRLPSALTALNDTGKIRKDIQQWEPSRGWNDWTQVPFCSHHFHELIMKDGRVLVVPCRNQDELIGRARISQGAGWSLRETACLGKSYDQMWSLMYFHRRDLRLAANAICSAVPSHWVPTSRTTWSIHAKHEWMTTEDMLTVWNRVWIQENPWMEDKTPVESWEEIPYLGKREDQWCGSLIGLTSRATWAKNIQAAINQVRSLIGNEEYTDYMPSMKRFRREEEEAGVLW

[14] = system: Vero; assay: Vero cell cytotoxicity, cytotoxicity control for flavivirus capping enzyme inhibitors (AID 588742); format: functional; conditions: Chlorocebus sabaeus
[15] = target: Induced myeloid leukemia cell differentiation protein Mcl-1 (Homo sapiens, UniProt Q07820); format: functional
Sequence of Induced myeloid leukemia cell differentiation protein Mcl-1 (Q07820 whole entry): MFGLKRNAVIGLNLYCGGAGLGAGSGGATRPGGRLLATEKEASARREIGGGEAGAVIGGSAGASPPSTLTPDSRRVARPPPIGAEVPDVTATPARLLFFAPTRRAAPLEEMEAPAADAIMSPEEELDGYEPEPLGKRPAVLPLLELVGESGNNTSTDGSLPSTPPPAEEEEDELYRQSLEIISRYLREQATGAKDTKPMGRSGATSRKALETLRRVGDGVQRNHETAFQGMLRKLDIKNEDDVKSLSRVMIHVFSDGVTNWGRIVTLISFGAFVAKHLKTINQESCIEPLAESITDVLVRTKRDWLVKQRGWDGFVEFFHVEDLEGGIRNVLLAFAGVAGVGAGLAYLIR

[16] = target: T4, CAAX prenyl protease 2 (Saccharomyces cerevisiae S288c, UniProt Q03530); format: biochemical
T4 sequence (Q03530 whole entry): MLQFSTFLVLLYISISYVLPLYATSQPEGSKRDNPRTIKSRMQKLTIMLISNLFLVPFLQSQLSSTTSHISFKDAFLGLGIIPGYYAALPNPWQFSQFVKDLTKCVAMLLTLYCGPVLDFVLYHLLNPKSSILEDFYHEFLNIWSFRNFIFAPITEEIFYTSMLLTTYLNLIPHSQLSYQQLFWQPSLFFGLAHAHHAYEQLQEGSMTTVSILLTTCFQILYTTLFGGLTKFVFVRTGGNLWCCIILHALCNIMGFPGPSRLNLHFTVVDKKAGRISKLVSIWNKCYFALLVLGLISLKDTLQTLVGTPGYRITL

[17] = target: Intestinal-type alkaline phosphatase (Mus musculus, UniProt P24822); assay: PubChem AID 488785; format: functional
Sequence of Intestinal-type alkaline phosphatase (Mus musculus, UniProt P24822) (P24822 whole entry): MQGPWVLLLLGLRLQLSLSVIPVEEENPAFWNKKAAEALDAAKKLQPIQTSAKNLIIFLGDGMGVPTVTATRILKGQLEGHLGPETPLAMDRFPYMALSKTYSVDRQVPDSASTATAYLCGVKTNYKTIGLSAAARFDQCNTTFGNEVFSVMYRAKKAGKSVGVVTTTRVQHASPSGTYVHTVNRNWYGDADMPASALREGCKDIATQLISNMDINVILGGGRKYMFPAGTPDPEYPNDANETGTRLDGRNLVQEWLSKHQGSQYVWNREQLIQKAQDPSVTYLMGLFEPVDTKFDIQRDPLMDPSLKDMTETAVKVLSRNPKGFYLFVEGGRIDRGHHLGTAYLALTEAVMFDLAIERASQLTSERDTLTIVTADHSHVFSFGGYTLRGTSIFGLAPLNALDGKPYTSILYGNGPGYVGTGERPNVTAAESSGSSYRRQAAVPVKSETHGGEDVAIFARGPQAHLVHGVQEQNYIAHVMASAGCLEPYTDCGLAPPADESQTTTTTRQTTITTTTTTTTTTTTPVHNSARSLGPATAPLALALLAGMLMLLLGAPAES

[18] = target: T5, Alkaline phosphatase, tissue-nonspecific isozyme (Homo sapiens, UniProt P05186); assay: TNAP enzyme inhibition by screening hits, dose response, selectivity assay for mouse IAP inhibitor project, biochemical, human TNAP, uHTS hits (AID 488906); format: functional
T5 sequence (P05186 whole entry): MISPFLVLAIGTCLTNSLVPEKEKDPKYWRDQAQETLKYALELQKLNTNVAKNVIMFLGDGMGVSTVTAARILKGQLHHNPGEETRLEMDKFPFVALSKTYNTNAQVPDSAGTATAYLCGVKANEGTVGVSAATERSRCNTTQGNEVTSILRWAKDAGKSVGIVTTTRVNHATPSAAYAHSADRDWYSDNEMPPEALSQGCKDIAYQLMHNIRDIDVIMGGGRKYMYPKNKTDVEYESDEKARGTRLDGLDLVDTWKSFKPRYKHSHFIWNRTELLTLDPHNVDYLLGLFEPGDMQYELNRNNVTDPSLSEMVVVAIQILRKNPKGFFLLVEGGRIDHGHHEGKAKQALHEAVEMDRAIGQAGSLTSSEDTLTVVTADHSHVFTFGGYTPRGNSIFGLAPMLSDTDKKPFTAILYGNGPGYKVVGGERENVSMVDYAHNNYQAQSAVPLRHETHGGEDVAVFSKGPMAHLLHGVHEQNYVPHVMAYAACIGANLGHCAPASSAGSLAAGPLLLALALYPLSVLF

[19] = system: H9c2; assay: cells; format: functional, cell-based; conditions: Rattus norvegicus, H9c2, Myocardium;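 further: confirmatory concentration-response retest of ultra-high-throughput screening hits for modulation of myocardial damage; cell death induced by hydrogen peroxide oxidative stress; compound pretreatment for 60 min then peroxide exposure for 2 h; potency is for protecting the cells against peroxide damage rather than for killing them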
[20] = target: T6, Histone-lysine N-methyltransferase NSD2 (Homo sapiens, UniProt O96028); format: biochemical
T6 sequence (O96028 whole entry): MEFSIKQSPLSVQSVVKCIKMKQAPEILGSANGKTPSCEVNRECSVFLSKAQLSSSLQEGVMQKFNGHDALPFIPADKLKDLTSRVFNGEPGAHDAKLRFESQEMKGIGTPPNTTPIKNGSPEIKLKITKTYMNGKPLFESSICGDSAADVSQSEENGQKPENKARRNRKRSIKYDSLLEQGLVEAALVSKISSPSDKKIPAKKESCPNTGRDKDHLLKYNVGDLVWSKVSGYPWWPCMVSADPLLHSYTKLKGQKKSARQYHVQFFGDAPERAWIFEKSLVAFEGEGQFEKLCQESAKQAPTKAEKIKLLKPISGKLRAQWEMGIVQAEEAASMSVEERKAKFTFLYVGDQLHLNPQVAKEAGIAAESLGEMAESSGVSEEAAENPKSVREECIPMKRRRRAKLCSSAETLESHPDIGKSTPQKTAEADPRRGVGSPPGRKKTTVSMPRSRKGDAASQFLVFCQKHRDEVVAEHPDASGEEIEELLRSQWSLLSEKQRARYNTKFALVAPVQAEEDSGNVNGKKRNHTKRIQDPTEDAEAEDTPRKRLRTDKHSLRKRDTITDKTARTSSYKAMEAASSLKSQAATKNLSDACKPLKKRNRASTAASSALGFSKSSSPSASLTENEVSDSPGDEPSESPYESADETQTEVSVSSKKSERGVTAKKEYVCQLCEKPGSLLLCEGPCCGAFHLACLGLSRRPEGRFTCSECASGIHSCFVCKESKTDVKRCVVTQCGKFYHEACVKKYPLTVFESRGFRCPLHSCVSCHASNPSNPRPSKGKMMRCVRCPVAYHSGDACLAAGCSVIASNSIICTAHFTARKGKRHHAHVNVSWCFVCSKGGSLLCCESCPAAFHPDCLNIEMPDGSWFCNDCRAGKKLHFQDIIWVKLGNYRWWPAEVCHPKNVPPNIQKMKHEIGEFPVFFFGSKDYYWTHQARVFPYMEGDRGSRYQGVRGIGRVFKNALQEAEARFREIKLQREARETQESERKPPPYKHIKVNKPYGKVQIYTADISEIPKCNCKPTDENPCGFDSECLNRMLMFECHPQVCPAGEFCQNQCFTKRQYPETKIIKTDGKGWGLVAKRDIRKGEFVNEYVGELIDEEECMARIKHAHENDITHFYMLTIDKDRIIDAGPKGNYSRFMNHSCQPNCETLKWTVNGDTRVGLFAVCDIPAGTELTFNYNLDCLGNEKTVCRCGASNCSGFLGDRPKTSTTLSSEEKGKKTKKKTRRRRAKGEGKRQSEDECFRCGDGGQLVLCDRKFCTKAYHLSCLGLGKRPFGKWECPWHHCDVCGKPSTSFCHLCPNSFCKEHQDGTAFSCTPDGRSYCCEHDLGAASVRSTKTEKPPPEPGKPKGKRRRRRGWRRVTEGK

[21] = target: Intestinal-type alkaline phosphatase (Homo sapiens, UniProt P09923); assay: activation of human intestinal alkaline phosphatase – biochemical, dose response (AID 488873); format: functional

O=C1C(Cl)=C(Nc2cccc(O)c2)C(=O)N1Cc1ccccc1
EC50 [1]: 3.76 µM (active)

Cc1ccccc1C(=O)Nc1nnc(CC(=O)N/N=C/c2cn(Cc3ccccc3)c3ccccc23)s1
IC50 [2]: 16.8 µM (active) | IC50 [3]: 24.7 µM (active)

O=C(Nc1nc(-c2ccccc2)c(-c2ccccc2)o1)c1ccc(F)cc1
EC50 [4]: 1.77 µM (active) | IC50 [5]: > 66.6 µM (inactive) | AC50 [6]: 7.59 µM (active) | EC50 [7]: 0.894 µM (active)

Cc1cccc(N2C(=O)NC(=O)/C(=C\c3cc(C)n(-c4sc5c(c4C#N)CCCC5)c3C)C2=O)c1C
IC50 [8]: 17.1 µM (active)

O=C(NC(=S)Nc1ccccc1O)c1ccc(Cl)cc1Cl
IC50 [5]: > 66.6 µM (inactive) | EC50 [9]: 0.636 µM (active) | EC50 [10]: > 160 µM (inconclusive)

CCCCn1c(SCC(=O)N2c3ccccc3Sc3ccccc32)nc2c1c(=O)n(C)c(=O)n2C
EC50 [1]: 4.22 µM (active)

Sc1nnc(NCCCN2CCOCC2)s1
IC50 [11]: 22.6 µM (active) | IC50 [12]: 22.4 µM (active)

Cc1cc(OCC(=O)N(C(C)C)C(C)C)cc(C)c1Br
EC50 [1]: 3.76 µM (active)

CC(C)c1ccc(S(=O)(=O)/N=C2/C=C(Sc3nc[nH]n3)C(=O)c3ccccc32)cc1
IC50 [13]: 6.89 µM (active) | CC50 [14]: 22.2 µM (active) | IC50 [15]: 1.35 µM (active) | IC50 [8]: 2.88 µM (active)

CCn1cc(/C=C(\NC(=O)c2ccccc2Cl)C(=O)N2CCOCC2)c2ccccc21
AC50 [16]: 4.91 µM (active)

O=C(CN1CCN(c2ccccc2F)CC1)c1ccc(O)c(O)c1
IC50 [17]: 1.63 µM (active) | IC50 [18]: 96.8 µM (active) | IC50 [19]: > 79 µM (inactive) | AC50 [20]: 8.98 µM (active) | EC50 [21]: > 100 µM (inactive)
